Source: US7304093B2, “Ketone compounds and compositions for cholesterol management and related uses” (Esperion Therapeutics, Inc., priority 2000, dated 2007)
Read-outs that look alike come from different tables or passages of the source. Marks after values point to notes of the source that are not given here.

Tests used:
female obese Zucker rats = test: Serum lipid and glycemic control variables in chow-fed obese female Zucker rats, daily oral gavage for two weeks; format: in vivo, rat; settings: for change in vivo at 100 mg/kg: Rattus norvegicus, Table 9; for Glucose / HDL-C / NEFA / Non-HDL-C / TG / Insulin: serum, mean ± SEM; for Insulin: Tables 10, 11
Procedure, shortened: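 Female obese Zucker fa rats, 10–12 wk, 400–500 g, chow-fed, dosed daily by oral gavage for 14 days in CMC/Tween 20 or ethanol/PEG-200 vehicle. After a 6-h fast, serum was sampled pre-dose, day 7 and day 14. Triglycerides, total cholesterol, NEFA and β-hydroxybutyrate were measured, plus lipoprotein cholesterol by gel-filtration profiling.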

Question: For `CC(C)(CCCCC(=O)CCCCC(C)(C)C(=O)O)C(=O)O` [Compound 210c, 7-Oxo-2,2,12,12-tetramethyltridecanedioic acid], which “Insulin, percent increase (+) or decrease (−) of the pretreatment control value” (female obese Zucker rats; 10 mg/kg daily oral, 1 wk) is on record?
Answer: The value was “(−27) percent”.

Question: What about the “Non-HDL-C, percent increase (+) or decrease (−) of the pretreatment control value” (female obese Zucker rats; 10 mg/kg daily oral, 1 wk) of the same compound?
Answer: The value was “(−35) percent”.

Question: What about the “HDL-C, percent increase (+) or decrease (−) of the pretreatment control value” (female obese Zucker rats; 30 mg/kg daily oral, 1 wk) of the same compound?
Answer: Its value is “(+156) percent”.

Question: What about the “NEFA, percent increase (+) or decrease (−) of the pretreatment control value” (“NEFA, percent increase (+) or decrease” for short) (female obese Zucker rats; 30 mg/kg daily oral, 1 wk) of the same compound?
Answer: The value was “(−29) percent”.

Question: And the “Non-HDL-C, percent increase (+) or decrease (−) of the pretreatment control value” (female obese Zucker rats; 30 mg/kg daily oral, 1 wk)?
Answer: Its value is “(−23) percent”.

Question: And the “TG, percent increase (+) or decrease (−) of the pretreatment control value” (shortened to “TG, percent increase (+) or decrease (−)”) (female obese Zucker rats; 30 mg/kg daily oral, 1 wk)?
Answer: Its value is “(−33) percent”.

Question: And the “HDL-C, percent increase (+) or decrease (−) of the pretreatment control value” (female obese Zucker rats; 30 mg/kg daily oral, 2 wk)?
Answer: The value was “(+147) percent”.

Question: And the “HDL-C, percent increase (+) or decrease (−) of the pretreatment control value” (female obese Zucker rats; 100 mg/kg daily oral, 1 wk)?
Answer: Its value is “(+174) percent”.

Question: What about the “NEFA, percent increase (+) or decrease” value (female obese Zucker rats; 100 mg/kg daily oral, 1 wk) of the same compound?
Answer: Its value is “(−33) percent”.

Question: What about the “Non-HDL-C, percent increase (+) or decrease (−) of the pretreatment control value” (female obese Zucker rats; 100 mg/kg daily oral, 1 wk) of the same compound?
Answer: Its value is “(−42) percent”.

Question: What about the “TG, percent increase (+) or decrease (−)” value (female obese Zucker rats; 100 mg/kg daily oral, 1 wk) of the same compound?
Answer: Its value is “(−60) percent”.

Question: And the “HDL-C, percent increase (+) or decrease (−) of the pretreatment control value” (female obese Zucker rats; 100 mg/kg daily oral, 2 wk)?
Answer: Its value is “(+179) percent”.

Question: What about the “NEFA, percent increase (+) or decrease” value (female obese Zucker rats; 100 mg/kg daily oral, 2 wk) of the same compound?
Answer: The value was “(−45) percent”.

Question: What about the “Non-HDL-C, percent increase (+) or decrease (−) of the pretreatment control value” (female obese Zucker rats; 100 mg/kg daily oral, 2 wk) of the same compound?
Answer: The value was “(−29) percent”.

Question: What about the “TG, percent increase (+) or decrease (−)” value (female obese Zucker rats; 100 mg/kg daily oral, 2 wk) of the same compound?
Answer: Its value is “(−54) percent”.

Question: And the change in vivo at 100 mg/kg (female obese Zucker rats; 168 h, 100 mg/kg daily oral, 1 wk, read-out: HDL-Cholesterol, Percent Change from Pre-Treatment)?
Answer: The change in vivo at 100 mg/kg was 54%.

Question: What about the change in vivo at 100 mg/kg (female obese Zucker rats; 168 h, 100 mg/kg daily oral, 1 wk, read-out: NonHDL-Cholesterol, Percent Change from Pre-Treatment) of the same compound?
Answer: The change in vivo at 100 mg/kg was -62%.

Question: What about the change in vivo at 100 mg/kg (female obese Zucker rats; 168 h, 100 mg/kg daily oral, 1 wk, read-out: TG, Percent Change from Pre-Treatment) of the same compound?
Answer: Its change in vivo at 100 mg/kg is -74%.

Question: What about the change in vivo at 100 mg/kg (female obese Zucker rats; 336 h, 100 mg/kg daily oral, 2 wk, read-out: HDL-Cholesterol, Percent Change from Pre-Treatment) of the same compound?
Answer: Its change in vivo at 100 mg/kg is 78%.

Question: And the change in vivo at 100 mg/kg (female obese Zucker rats; 336 h, 100 mg/kg daily oral, 2 wk, read-out: NonHDL-Cholesterol, Percent Change from Pre-Treatment)?
Answer: Its change in vivo at 100 mg/kg is -41%.

Question: And the change in vivo at 100 mg/kg (female obese Zucker rats; 336 h, 100 mg/kg daily oral, 2 wk, read-out: TG, Percent Change from Pre-Treatment)?
Answer: The change in vivo at 100 mg/kg was -69%.

Question: What about the Glucose (female obese Zucker rats; 3 mg/kg daily oral, 1 wk) of the same compound?
Answer: Its Glucose is 99 ± 4 mg/dL.

Question: And the HDL-C (female obese Zucker rats; 3 mg/kg daily oral, 1 wk)?
Answer: The HDL-C was 36 ± 1 mg/dL.

Question: What about the NEFA (female obese Zucker rats; 3 mg/kg daily oral, 1 wk) of the same compound?
Answer: The NEFA was 1.2 ± 0.16 mg/dL.

Question: What about the Non-HDL-C (female obese Zucker rats; 3 mg/kg daily oral, 1 wk) of the same compound?
Answer: The Non-HDL-C was 24 ± 2 mg/dL.

Question: And the TG (female obese Zucker rats; 3 mg/kg daily oral, 1 wk)?
Answer: The TG was 775 ± 92 mg/dL.

Question: And the Insulin (female obese Zucker rats; 3 mg/kg daily oral, 1 wk)?
Answer: Its Insulin is 10.7 ± 0.8 ng/dL.

Question: And the Glucose (female obese Zucker rats; 3 mg/kg daily oral, 2 wk)?
Answer: The Glucose was 103 ± 3 mg/dL.

Question: And the HDL-C (female obese Zucker rats; 3 mg/kg daily oral, 2 wk)?
Answer: Its HDL-C is 33 ± 1 mg/dL.

Question: What about the NEFA (female obese Zucker rats; 3 mg/kg daily oral, 2 wk) of the same compound?
Answer: Its NEFA is 1.5 ± 0.27 mg/dL.

Question: What about the Non-HDL-C (female obese Zucker rats; 3 mg/kg daily oral, 2 wk) of the same compound?
Answer: Its Non-HDL-C is 24 ± 3 mg/dL.

Question: What about the TG (female obese Zucker rats; 3 mg/kg daily oral, 2 wk) of the same compound?
Answer: The TG was 857 ± 103 mg/dL.

Question: What about the Insulin (female obese Zucker rats; 3 mg/kg daily oral, 2 wk) of the same compound?
Answer: Its Insulin is 8.6 ± 0.5 ng/dL.

Question: What about the Glucose (female obese Zucker rats; 10 mg/kg daily oral, 1 wk) of the same compound?
Answer: The Glucose was 105 ± 3 mg/dL.

Question: And the HDL-C (female obese Zucker rats; 10 mg/kg daily oral, 1 wk)?
Answer: Its HDL-C is 47 ± 7 mg/dL.

Question: And the NEFA (female obese Zucker rats; 10 mg/kg daily oral, 1 wk)?
Answer: Its NEFA is 0.92 ± 0.09.

Question: What about the Non-HDL-C (female obese Zucker rats; 10 mg/kg daily oral, 1 wk) of the same compound?
Answer: Its Non-HDL-C is 26 ± 4^a mg/dl.

Question: What about the TG (female obese Zucker rats; 10 mg/kg daily oral, 1 wk) of the same compound?
Answer: The TG was 692 ± 180 mg/dL.

Question: What about the Insulin (female obese Zucker rats; 10 mg/kg daily oral, 1 wk) of the same compound?
Answer: The Insulin was 7.7 ± 1.0^a ng/dl.

Question: And the Glucose (female obese Zucker rats; 10 mg/kg daily oral, 2 wk)?
Answer: Its Glucose is 113 ± 3 mg/dL.

Question: What about the HDL-C (female obese Zucker rats; 10 mg/kg daily oral, 2 wk) of the same compound?
Answer: Its HDL-C is 39 ± 5 mg/dL.

Question: And the NEFA (female obese Zucker rats; 10 mg/kg daily oral, 2 wk)?
Answer: The NEFA was 1.5 ± 0.28 mg/dL.

Question: And the Non-HDL-C (female obese Zucker rats; 10 mg/kg daily oral, 2 wk)?
Answer: Its Non-HDL-C is 27 ± 4 mg/dL.

Question: And the TG (female obese Zucker rats; 10 mg/kg daily oral, 2 wk)?
Answer: The TG was 814 ± 205 mg/dL.

Question: What about the Insulin (female obese Zucker rats; 10 mg/kg daily oral, 2 wk) of the same compound?
Answer: The Insulin was 8.9 ± 1.3 ng/dL.

Question: And the Glucose (female obese Zucker rats; 30 mg/kg daily oral, 1 wk)?
Answer: Its Glucose is 115 ± 4 mg/dL.

Question: And the HDL-C (female obese Zucker rats; 30 mg/kg daily oral, 1 wk)?
Answer: The HDL-C was 53 ± 8^a mg/dl.

Question: What about the NEFA (female obese Zucker rats; 30 mg/kg daily oral, 1 wk) of the same compound?
Answer: Its NEFA is 1.0 ± 0.11.

Question: And the Non-HDL-C (female obese Zucker rats; 30 mg/kg daily oral, 1 wk)?
Answer: The Non-HDL-C was 37 ± 4^a mg/dl.

Question: And the TG (female obese Zucker rats; 30 mg/kg daily oral, 1 wk)?
Answer: Its TG is 826 ± 92^a mg/dl.

Question: And the Insulin (female obese Zucker rats; 30 mg/kg daily oral, 1 wk)?
Answer: The Insulin was 9.2 ± 1.3 ng/dL.

Question: What about the Glucose (female obese Zucker rats; 30 mg/kg daily oral, 2 wk) of the same compound?
Answer: Its Glucose is 118 ± 8 mg/dL.

Question: What about the HDL-C (female obese Zucker rats; 30 mg/kg daily oral, 2 wk) of the same compound?
Answer: Its HDL-C is 50 ± 9^a mg/dl.

Question: And the NEFA (female obese Zucker rats; 30 mg/kg daily oral, 2 wk)?
Answer: The NEFA was 1.1 ± 0.20 mg/dL.

Question: What about the Non-HDL-C (female obese Zucker rats; 30 mg/kg daily oral, 2 wk) of the same compound?
Answer: Its Non-HDL-C is 43 ± 5 mg/dL.

Question: And the TG (female obese Zucker rats; 30 mg/kg daily oral, 2 wk)?
Answer: The TG was 962 ± 118 mg/dL.

Question: What about the Insulin (female obese Zucker rats; 30 mg/kg daily oral, 2 wk) of the same compound?
Answer: Its Insulin is 8.5 ± 1.8 ng/dL.

Question: What about the Glucose (female obese Zucker rats; 100 mg/kg daily oral, 1 wk) of the same compound?
Answer: Its Glucose is 113 ± 6 mg/dL.

Question: What about the HDL-C (female obese Zucker rats; 100 mg/kg daily oral, 1 wk) of the same compound?
Answer: The HDL-C was 66 ± 9^a mg/dl.

Question: What about the NEFA (female obese Zucker rats; 100 mg/kg daily oral, 1 wk) of the same compound?
Answer: The NEFA was 0.81 ± 0.07.

Question: And the Non-HDL-C (female obese Zucker rats; 100 mg/kg daily oral, 1 wk)?
Answer: The Non-HDL-C was 18 ± 3^a mg/dl.

Question: What about the TG (female obese Zucker rats; 100 mg/kg daily oral, 1 wk) of the same compound?
Answer: Its TG is 383 ± 49^a mg/dl.

Question: And the Insulin (female obese Zucker rats; 100 mg/kg daily oral, 1 wk)?
Answer: Its Insulin is 9.0 ± 1.0 ng/dL.

Question: And the Glucose (female obese Zucker rats; 100 mg/kg daily oral, 2 wk)?
Answer: The Glucose was 122 ± 7 mg/dL.

Question: What about the HDL-C (female obese Zucker rats; 100 mg/kg daily oral, 2 wk) of the same compound?
Answer: The HDL-C was 68 ± 10^a mg/dl.

Question: And the NEFA (female obese Zucker rats; 100 mg/kg daily oral, 2 wk)?
Answer: Its NEFA is 0.66 ± 0.06.

Question: What about the Non-HDL-C (female obese Zucker rats; 100 mg/kg daily oral, 2 wk) of the same compound?
Answer: Its Non-HDL-C is 22 ± 3^a mg/dl.

Question: And the TG (female obese Zucker rats; 100 mg/kg daily oral, 2 wk)?
Answer: Its TG is 440 ± 58^a mg/dl.

Question: And the Insulin (female obese Zucker rats; 100 mg/kg daily oral, 2 wk)?
Answer: The Insulin was 9.5 ± 0.9 ng/dL.

Question: And the melting point?
Answer: The melting point was 60 to 61.5 °C.
